Laboratory results taken from US20100029643A1 (ASTRAZENECA AB, priority 2006, published 2010).

Biological target: T1, Edg-1/S1P1 receptor (Homo sapiens, UniProt P21453)
T1 construct: expressed in transfected cells; host or cells: human osteogenic sarcoma U2OS cells: Edg-1 Transfluor U2OS WT Clone #37 (assay I), Edg-1 Transfluor U2OS Clone #3 (assay II)
Assay: In vitro cell based receptor activation assay - Transfluor assay (assay I or II; beta-arrestin GFP relocalization after S1P stimulation)
Conditions: at 3.50 μM (titrated from top concentration 10 μM)
Excerpt: The following assays can be used to measure the effects of the compounds of the present invention as S1P1/Edg1 inhibitors.
I. In Vitro Cell Based Receptor Activation Assay-Transfluor Assay
(§1) This cell-based assay was designed to assess the ability of small molecule antagonists to inhibit activation of the GPCR S1P1 in the presence of its cognate ligand S1P. The assay used technology initially developed by Norak Biosciences (Xsira Pharmaceutical) and presently owned by Molecular Devices. A human osteogenic sarcoma (U2OS) cell line overexpressing the Edg-1/S1P1) receptor as well as a beta-arrestin/green fluorescent protein (GFP) construct hereafter termed Edg-1 Transfluor U2OS WT Clone #37 was employed.
Using a high content screening approach (Cellomics Arrayscan), receptor activity was measured by assessment of the relocalization of beta-arrestin GFP in response to stimulation of Edg-1 by SIP. Specifically, Edg-1 Transfluor U2OS WT Clone #37 cells were plated at a density of 6250 cells in 40 μL medium per well in 384 well plastic bottomed microtiter plates (BD Falcon) and incubated overnight at 37° C./5% CO2. Prior to screening, compounds were dissolved in 100% dimethyl sulfoxide (DMSO) to a final stock concentration of 10 mM. Compounds were then serially diluted at 30× final concentration in Edg-1 Transfluor cell growth medium containing […] using the Tecan Genesis instrument. These 30× plates were then diluted to 6× final concentration with Edg-1 Transfluor growth medium just prior to dosing. Cells were then dosed with 10 μL per well of 6× compound dilutions or 6% DMSO and pre-incubated for 15 minutes at room temperature. Cell plates were dosed with 10 μL per well 6× S1P Edg-1 Transfluor growth medium, then incubated for 45 minutes at 37° C./5% CO2. Final concentration in the well of DMSO was 1%, compound was IX (3-fold, 9 point IC50 dilutions starting at 100 μM final concentration), and either 375 nM or […] SIP ligand. Cell plates were then fixed by adding 50 μL per well of 5% formaldehyde in 1× Dulbecco's phosphate buffered saline (DPBS) directly and incubating for 30 minutes at room temperature in darkness. Fixative was removed and replaced with 50 μL per well of 1×DPBS, after which cells were stained with 10 μg/mL final concentration of Hoechst 33342 (Molecular Probes) for 15 minutes at room temperature in darkness. Stain was then removed from the plates and replaced with 50 μL per well of 1×DPBS using the BioTek ExL405 plate washer. Plates were then sealed and analysed on the Cellomics Arrayscan using the GPCR signalling algorithm. EC50 values were then calculated using IDBS ActivityBase software.
II. In Vitro Cell Based Receptor Activation Assay-Transfluor Assay
as §1, with “Devices (MDS Analytical Technologies).” for “Devices.”, “U2OS” for “U2OS WT”, “#3” for “#37”
Using a high content screening approach (Molecular Devices Image Express), receptor activity was measured by assessment of the relocalization of beta-aiTestin GFP in response to stimulation of Edg-1 by S1P. Specifically, Edg-1 Transfluor U2OS Clone #3 cells were plated at a density of 6250 cells in 44 μL medium per well in 384 well plastic bottomed microtiter plates (BD Falcon) and incubated overnight at 37° C./5% CO2. Prior to screening, compounds were dissolved in 100% dimethyl sulfoxide (DMSO) to a final stock concentration of 10 mM. Compounds were then serially diluted at 10× final concentration in Edg-1 Transfluor cell growth medium containing 6% DMSO using the BioMek instrument. […]

T1 sequence (P21453 whole entry): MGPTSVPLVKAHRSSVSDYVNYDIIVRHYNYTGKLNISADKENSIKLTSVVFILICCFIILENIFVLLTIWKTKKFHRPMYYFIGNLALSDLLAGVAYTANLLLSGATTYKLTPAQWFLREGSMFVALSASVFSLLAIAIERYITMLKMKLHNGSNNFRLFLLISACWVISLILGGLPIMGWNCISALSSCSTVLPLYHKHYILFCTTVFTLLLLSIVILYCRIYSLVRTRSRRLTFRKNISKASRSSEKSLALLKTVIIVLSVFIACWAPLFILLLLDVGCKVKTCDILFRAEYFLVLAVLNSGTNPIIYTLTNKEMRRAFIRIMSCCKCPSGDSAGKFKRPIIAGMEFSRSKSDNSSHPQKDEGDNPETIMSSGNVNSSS

Row | inhibition at 3.5 µM [%] | Compound
1 | 94.4 | CCn1c([C@@H](C)NS(=O)(=O)c2ccc(Cl)cc2)nc2ccc(CO)cc21 (stereo in doubt) [Example 68, 4-Chloro-N-{1-[1-ethyl-6-(hydroxymethyl)-1H-benzimidazol-2-yl]ethyl}benzenesulfonamide]
2 | 83.4 | CCn1c([C@@H](C)NS(=O)(=O)c2ccc(C#N)cc2)nc2cnc(C3CC3)cc21 (stereo in doubt) [Example 183, 4-Cyano-N-[1-(6-cyclopropyl-1-ethyl-1H-imidazo[4,5-c]pyridin-2-yl)-ethyl]-benzenesulfonamide]
3 | 94 | CCC(NS(=O)(=O)c1ccc(Cl)cc1)c1nc2ccccc2n1CC (stereo not drawn) [Example 2, 4-Chloro-N-[1-(1-ethyl-1H-benzoimidazol-2-yl)propyl]-benzenesulfonamide]

Same assay, conditions: at 3.70 μM (titrated from top concentration 100 μM)

Row | Compound | inhibition at 3.7 µM [%] | % inhibition
4 | 4-Chloro-N-{1-[1-ethyl-6-(methylsulfonyl)-1H-benzimidazol-2-yl]ethyl}benzenesulfonamide [Example 80] | – | [drawing 92] 4-Chloro-N-{1-[1-ethyl-6- (methylsulfonyl)-1H- benzimidazol-2-yl]ethyl}benzenesulfonamide (22.57% inhibition at 3.70 μM)
5 | CCn1c(C(CC(C)C)NS(=O)(=O)c2ccc(Cl)cc2)nc2ccccc21 (stereo not drawn) [Example 4, 4-Chloro-N-[1-(1-ethyl-1H-benzimidazol-2-yl)-3-methyl-butyl}benzenesulfonamide] | 66.4 | –
6 | CCn1c(C(Cc2ccccc2)NS(=O)(=O)c2ccc(Cl)cc2)nc2ccccc21 (stereo not drawn) [Example 5, 4-Chloro-N-[1-(1-ethyl-1H-benzimidazol-2-yl)-2-phenyl-ethyl]benzenesulfonamide] | 73.2 | –
7 | CCn1c(C(Cc2ccc(F)cc2)NS(=O)(=O)c2ccc(Cl)cc2)nc2ccccc21 (stereo not drawn) [Example 6] | 77.7 | –
8 | CCn1c(C(Cc2cccnc2)NS(=O)(=O)c2ccc(Cl)cc2)nc2ccccc21 (stereo not drawn) [Example 7, 4-Chloro-N-[1-(1-ethyl-1H-benzimidazol-2-yl)-2-pyridin-3-yl-ethyl]benzene-sulfonamide] | 79.7 | –
9 | CC(NS(=O)(=O)c1ccc(Cl)cc1)c1nc2ccccc2n1C (stereo not drawn) [Example 8, 4-Chloro-N-[1-(1-methyl-1H-benzimidazol-2-yl)ethyl]-benzenesulfonamide] | 91.2 | –

Second part, led by results:

Row | inhibition at 3.7 µM [%] | Compound | % inhibition
10 | 91.3 | CCOC(=O)c1ccc2nc([C@@H](C)NS(=O)(=O)c3ccc(Cl)cc3)n(CC)c2c1 (stereo in doubt) [Example 67, Ethyl 2-(1-{[(4-chlorophenyl)sulfonyl]amino}-ethyl)-1-ethyl-1H-benzimidazole-6-carboxylate] | –
11 | 21.7 | CCn1c([C@@H](C)NS(=O)(=O)c2ccc(Cl)cc2)nc2ccc(C(=O)N(C)C)cc21 (stereo in doubt) [Example 72, 2-(1-{[(4-Chlorophenyl)sulfonyl]amino}-ethyl)-1-ethyl-N,N-dimethyl-1H-benzimidazole-6-carboxamide] | –
12 | 8.88 | CCn1c([C@@H](C)NS(=O)(=O)c2ccc(Cl)cc2)nc2ccc(C(=O)N3CCOCC3)cc21 (stereo in doubt) [Example 73, 4-Chloro-N-{1-[1-ethyl-6-(morpholin-4-ylcarbonyl)-1H-benzimidazol-2-yl]ethyl}benzenesulfonamide] | –
13 | 94.9 | CCn1c([C@@H](C)NS(=O)(=O)c2ccc(Cl)cc2)nc2ccc(SC)cc21 (stereo in doubt) [Example 79, 4-Chloro-N-{1-[1-ethyl-6-(methylthio)-1H-benzimidazol-2-yl]ethyl}benzenesulfonamide] | –
14 | 59 | CCn1c(C(NS(=O)(=O)c2ccc(Cl)cc2)C(C)C)nc2ccccc21 (stereo not drawn) [Example 3, 4-Chloro-N-[1-(1-ethyl-1H-benzimidazol-2-yl)-2-methyl-propyl]benzenesulfonamide] | –

Same assay, conditions: one or the other of the two Transfluor assays; Edg-1 Transfluor U2OS cells, S1P ligand

Row | EC50 [µM] | Compound
15 | > 33 | CCn1c([C@H](C)NS(=O)(=O)c2ccc(Cl)cc2)nc2cnccc21 [4-chloro-N-[(1S)-1-(1-ethyl-1H-imidazo[4,5-c]pyridin-2-yl)ethyl]benzenesulfonamide]
